Laboratory results as given in patent publication US20110144160A1, “Antagonists of Prostaglandin D2 Receptors” (Amira Pharmaceuticals, Inc., priority 2008, published 2011).

Legend:
human DP2 receptor = biological target: T1, human DP2 receptor (Homo sapiens, UniProt Q9Y5Y4); assay: DP2/CRTH2 binding assay ([3H]PGD2 radioligand); conditions: membranes of HEK293 cells expressing recombinant human DP2, 1 nM [3H]PGD2; read-out: hDP2
T1 construct: expressed in transfected cells
T1 sequence (Q9Y5Y4 1-395): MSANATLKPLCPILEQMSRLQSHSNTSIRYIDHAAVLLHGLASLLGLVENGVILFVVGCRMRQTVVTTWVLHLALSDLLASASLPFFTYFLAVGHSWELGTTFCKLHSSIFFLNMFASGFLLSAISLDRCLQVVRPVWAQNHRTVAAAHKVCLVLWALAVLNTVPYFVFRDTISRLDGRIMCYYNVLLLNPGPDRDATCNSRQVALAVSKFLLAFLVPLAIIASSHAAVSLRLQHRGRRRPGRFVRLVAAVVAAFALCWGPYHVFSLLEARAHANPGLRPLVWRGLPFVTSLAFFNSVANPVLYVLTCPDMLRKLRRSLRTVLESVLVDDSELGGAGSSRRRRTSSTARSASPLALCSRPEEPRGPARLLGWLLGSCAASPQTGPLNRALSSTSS
Protocol: The ability of a compound to bind to the human DP2 receptor is assessed via a radioligand binding assay using [^3H]PGD2. HEK293 cells stably expressing recombinant human DP2 are resuspended in 10 mM Hepes, 7.4 containing 1 mM DTT, lysed and centrifuged at 75,000×g to pellet the membranes. The membranes are resuspended in 10 mM Hepes, 7.4 containing 1 mM DTT and 10% glycerol to approximately 5 mg protein/ml. Membranes (2-10 μg protein/well) are incubated in 96-well plates with 1 nM [^3H]PGD2 and test compound in Assay Buffer (50 mM Hepes, 10 mM MnCl2, 1 mM EDTA, plus or minus 0.2% human serum albumin, pH 7.4) for 60 minutes at room temperature. The reactions are terminated by rapid filtration through Whatman GF/C glass fibre filter plates. The filter plates were pre-soaked in 0.33% polythylenimine for 30 minutes at room temperature then washed in Wash Buffer (50 mM Hepes, 0.5 M NaCl pH 7.4) prior to harvesting. After harvesting, the filter plates are washed 3 times with 1 ml cold Wash Buffer then dried. Scintillant is then added to the plates and the radioactivity retained on the filters is determined on a Packard TopCount (Perkin Elmer). Specific binding is determined as total radioactive binding minus non-specific binding in the presence of 10 μM PGD2. IC50s were determined using GraphPad prism analysis of drug titration curves.

human DP1 receptor = biological target: T2, human DP1 receptor (Homo sapiens, UniProt Q13258); assay: DP1 binding assay ([3H]BWA868C radioligand); conditions: human platelet membranes, 2 nM [3H]BWA868C; read-out: hDP1
T2 construct: tissue Biological Specialty Corporation; host or cells: human platelets, membrane preparation
T2 sequence (Q13258 1-359): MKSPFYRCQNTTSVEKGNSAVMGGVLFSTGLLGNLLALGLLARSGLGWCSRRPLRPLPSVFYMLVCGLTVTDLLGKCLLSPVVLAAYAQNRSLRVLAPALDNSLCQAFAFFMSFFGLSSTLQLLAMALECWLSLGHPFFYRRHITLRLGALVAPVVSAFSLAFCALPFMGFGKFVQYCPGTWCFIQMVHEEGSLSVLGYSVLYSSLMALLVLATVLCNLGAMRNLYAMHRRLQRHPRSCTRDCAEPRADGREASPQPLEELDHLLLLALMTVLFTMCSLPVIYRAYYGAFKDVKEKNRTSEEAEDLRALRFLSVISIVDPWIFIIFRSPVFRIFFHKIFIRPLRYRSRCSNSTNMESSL
Protocol: The ability of a compound to bind to the human DP1 receptor was evaluated via a radioligand membrane binding assay using the DP1 selective synthetic ligand [^3H]BWA868C. Packed human platelets (Biological Specialty Corporation), were resuspended in 6 volumes of Hepes/HBSS buffer (10 mM Hepes, 1 mM DTT in Hanks Balanced Salt Solution (HBSS), lysed and centrifuged at 75,000×g to pellet the membranes. Membranes were resuspended in Hepes/HBSS buffer to approximately 12 mg protein/ml. Membranes (20 μg protein/well) are incubated in 96-well plates with 2 nM [^3H]BWA868C and test compound in Assay Buffer (50 mM Hepes, 10 mM MnCl2, 1 mM EDTA, plus or minus 0.2% human serum albumin, pH 7.4) for 60 minutes at room temperature. The reactions are terminated by rapid filtration through Whatman GF/C glass fibre filter plates. The filter plates were pre-soaked in 0.33% polethylenimine for 30 minutes at room temperature then washed in Wash Buffer (50 mM Hepes, 0.5 M NaCl pH 7.4) prior to harvesting. After harvesting, the filter plates are washed 3 times with 1 ml cold Wash Buffer then dried. Scintillant is then added to the plates and the radioactivity retained on the filters is determined on a Packard TopCount (Perkin Elmer). Specific binding is determined as total radioactive binding minus non-specific binding in the presence of 10 μM BW A868C. IC50s were determined using GraphPad prism analysis of drug titration curves.

| SMILES | IC50 (human DP2 receptor) [nM] | IC50 (human DP1 receptor) [nM] |
| --- | --- | --- |
| COc1ccc(CC(=O)O)cc1Oc1ccc(N2CCNC2=O)cc1CSCC(F)(F)F [Compound 57, {4-Methoxy-3-[4-(2-oxo-imidazolidin-1-yl)-2-(2,2,2-trifluoro-ethylsulfanylmethyl)-phenoxy]-phenyl}-acetic acid] | 300 to 1000 | > 1000 |
| COc1ccc(CC(=O)O)cc1Oc1ccc(NC(=O)c2ccncc2)cc1CSCC(F)(F)F [Compound 71, {4-methoxy-3-[4-[(pyridine-4-carbonyl)-amino]-2-(2,2,2-trifluoro-ethylsulfanylmethyl)-phenoxy]-phenyl}-acetic acid] | < 300 | 300 to 1000 |
| CC(C)(C)C(=O)Nc1ccc(Oc2cc(CC(=O)O)cc(C(F)(F)F)c2)c(CSCC(F)(F)F)c1 [Compound 32, {3-[4-(2,2-Dimethyl-propionylamino)-2-(2,2,2-trifluoro-ethylsulfanylmethyl)-phenoxy]-5-trifluoromethyl-phenyl}-acetic acid] | < 300 | > 1000 |
| CC(C)(C)SCc1cc(NC(=O)c2ccc(Cl)cc2)ccc1Oc1cc(CC(=O)O)ccc1Cl [Compound 60, {3-[2-tert-Butylsulfanylmethyl-4-(4-chloro-benzoylamino)-phenoxy]-4-chloro-phenyl}-acetic acid] | < 300 | < 300 |
| COc1ccc(CC(=O)O)cc1Oc1ccc(NC(=O)c2ccc(Cl)cc2)cc1CSc1ccccc1 [Compound 17, {3-[4-(4-Chloro-benzoylamino)-2-phenylsulfanylmethyl-phenoxy]-4-methoxy-phenyl}-acetic acid] | < 300 | > 1000 |
| COc1ccc(CC(=O)O)cc1Oc1ccc(NC(=O)C(C)(C)C)cc1CSCC(F)(F)F [Compound 2, {3-[4-(2,2-dimethyl-propionylamino)-2-(2,2,2-trifluoro-ethylsulfanylmethyl)-phenoxy]-4-methoxy-phenyl}-acetic acid] | < 300 | > 1000 |
| CC(C)C(=O)Nc1ccc(Oc2cc(CC(=O)O)ccc2Cl)c(CSC(C)(C)C)c1 [Compound 61, [3-(2-tert-Butylsulfanylmethyl-4-isobutyrylamino-phenoxy)-4-chloro-phenyl]-acetic acid] | < 300 | < 300 |
| COc1ccc(CC(=O)O)cc1Oc1ccc(NC(=O)c2cccnc2)cc1CSCC(F)(F)F [Compound 70, {4-methoxy-3-[4-[(pyridine-3-carbonyl)-amino]-2-(2,2,2-trifluoro-ethylsulfanylmethyl)-phenoxy]-phenyl}-acetic acid] | < 300 | 300 to 1000 |
| COc1ccc(CC(=O)O)cc1Oc1ccc(NC(=O)c2ccc(Cl)cc2Cl)cc1CSC(C)(C)C [Compound 65, {3-[2-tert-Butylsulfanylmethyl-4-(2,4-dichloro-benzoylamino)-phenoxy]-4-methoxy-phenyl}-acetic acid] | < 300 | < 300 |
| CC(C)(C)C(=O)Nc1ccc(Oc2cc(CC(=O)O)ccc2O)c(C[S+]([O-])C(C)(C)C)c1 (stereo not drawn) [Compound 76, {3-[4-(2,2-Dimethyl-propionylamino)-2-(2-methyl-propane-2-sulfinylmethyl)-phenoxy]-4-hydroxy-phenyl}-acetic acid] | < 300 | < 300 |
| COc1ccc(CC(=O)O)cc1Oc1ccc(NC(=O)c2ccc(C(F)(F)F)cc2)cc1CSCC(F)(F)F [Compound 69, {4-methoxy-3-[2-(2,2,2-trifluoro-ethylsulfanylmethyl)-4-(4-trifluoromethyl-benzoylamino)-phenoxy]-phenyl}-acetic acid] | < 300 | < 300 |
| COc1ccc(CC(=O)O)cc1Oc1ccc(NC(=O)c2ccc(Cl)cc2)cc1CSc1nnc(C)s1 [Compound 19, {3-[4-(4-Chloro-benzoylamino)-2-(5-methyl-[1,3,4]thiadiazol-2-ylsulfanylmethyl)-phenoxy]-4-methoxy-phenyl}-acetic acid] | < 300 | > 1000 |
| COc1ccc(CC(=O)O)cc1Oc1ccc(NC(=O)c2cccc(C(F)(F)F)c2)cc1CSCC(F)(F)F [Compound 68, {4-methoxy-3-[2-(2,2,2-trifluoro-ethylsulfanylmethyl)-4-(3-trifluoromethyl-benzoylamino)-phenoxy]-phenyl}-acetic acid] | < 300 | < 300 |
| CC(C)(C)SCc1cc(NC(=O)C(C)(C)C)ccc1Oc1cc(CC(=O)O)ccc1Cl [Compound 59, {3-[2-tert-Butylsulfanylmethyl-4-(2,2-dimethyl-propionylamino)-phenoxy]-4-chloro-phenyl}-acetic acid] | < 300 | < 300 |
| COc1ccc(CC(=O)O)cc1Oc1ccc(NC(=O)c2cc(F)cc(F)c2)cc1CSC(C)(C)C [Compound 67, {3-[2-tert-Butylsulfanylmethyl-4-(3,5-difluoro-benzoylamino)-phenoxy]-4-methoxy-phenyl}-acetic acid] | < 300 | < 300 |
| COc1ccc(CC(=O)O)cc1Oc1ccc(NC(=O)c2ccc(F)cc2)cc1CSC(C)(C)C [Compound 63, {3-[2-tert-Butylsulfanylmethyl-4-(4-fluoro-benzoylamino)-phenoxy]-4-methoxy-phenyl}-acetic acid] | < 300 | < 300 |
| CC(C)(C)SCc1cc(NC(=O)C(C)(C)C)ccc1Oc1cc(CC(=O)O)ccc1O [Compound 75, {3-[2-tert-Butylsulfanylmethyl-4-(2,2-dimethyl-propionylamino)-phenoxy]-4-hydroxy-phenyl}-acetic acid] | < 300 | < 300 |
| COc1ccc(CC(=O)O)cc1Oc1ccc(NC(=O)c2ccccc2)cc1CSC(C)(C)C [Compound 58, [3-(4-benzoylamino-2-tert-butylsulfanylmethyl-phenoxy)-4-methoxy-phenyl]-acetic acid] | < 300 | < 300 |
| O=C(O)CCn1c2c(c3ccccc31)C[C@H](NS(=O)(=O)c1ccc(F)cc1)CC2 [Ramatroban, reference compound] | 300 to 1000 | > 1000 |
| COc1ccc(CC(=O)O)cc1Oc1ccc(NC(=O)c2ccc(Cl)cc2)cc1CSCC(F)(F)F [Compound 1, {3-[4-(4-Chloro-benzoylamino)-2-(2,2,2-trifluoro-ethylsulfanylmethyl)-phenoxy]-4-methoxy-phenyl}-acetic acid] | < 300 | > 1000 |
| COc1ccc(CC(=O)O)cc1Oc1ccc(NC(=O)C(C)(C)C)cc1CS(=O)(=O)C(C)(C)C [Compound 74, {3-[4-(2,2-Dimethyl-propionylamino)-2-(2-methyl-propane-2-sulfonylmethyl)-phenoxy]-4-methoxy-phenyl}-acetic acid] | < 300 | < 300 |
